Source: patent publication US20040259932A1, “Method and compound to reduce the incidence of diabetes in a subject with chronic heart failure” (priority 2003, published 2004)
“Also recorded” adds a separate entry of the source.

What was measured:
[1] = test system: patients with hypertension; settings: cited from earlier work; for patients who developed diabetes: losartan compared with atenolol
[2] = test system: Elderly; settings: candesartan compared with placebo; nonsignificant; cited from earlier work
[3] = test system: hypertensive population; settings: captopril compared with a β-blocker or a diuretic; cited from earlier work
[4] = compared with metoprolol; cited from earlier work
[5] = test system: patients with left ventricular dysfunction; assay: Retrospective analysis of Montreal Heart Institute patients of the SOLVD trials: new-onset diabetes (FPG≧126 mg/dL at 2 visits); type: in vivo, human
Excerpt: The patients from the Montreal Heart Institute who were randomized in the SOLVD trials were included in this study. SOLVD was a multicenter, double-blind, randomized, placebo-controlled trial that assessed the effect of the ACE inhibitor enalapril on survival in patients with left ventricular dysfunction (ejection fraction≦35%). The details of the trial have been described elsewhere.^12 Briefly, the prevention trial included 4228 patients with asymptomatic left ventricular dysfunction, and the treatment trial randomized 2569 patients with congestive heart failure from June 1986 to August 1991. Patients were randomized to enalapril (5 to 20 mg/day) or placebo. Exclusion criteria included age >80 years, unstable angina pectoris, myocardial infarction in the previous month, severe pulmonary disease, renal insufficiency (creatinine level>177 μmol/L [2 mg/dL]), and intolerance to ACE inhibitor or current ACE inhibitor use. Follow-up visits were scheduled 2 and 6 weeks after randomization and every 4 months until the end of the study, for a mean follow-up of 3.4 and 3.1 years for the treatment and prevention trials, respectively.
Baseline characteristics, past medical history, and medication profiles at the time of enrolment into the SOLVD trials were obtained from the SOLVD databases. Fasting plasma glucose (FPG) was not collected for research purposes in the SOLVD trials. However, follow-up of patients in SOLVD involved regular blood samples, including FPG, at almost every research visit. Accordingly, the medical file of each patient was reviewed, and FPG results were collected. Chart reviewers were blinded to treatment allocation.
A diagnosis of new onset diabetes during the follow-up period was defined according to the American Diabetes Association criteria^13 as a FPG≧126 mg/dL (7.0 mmol/L) at 2 different visits. For the purpose of the present study, the visits in which FPG≧126 occurred during infection, trauma, or acute myocardial infarction were not included.
Participants with diabetes at baseline (history of diabetes or FPG≧126 mg/dL at screening visit) were excluded. The study population was further divided among patients with impaired FPG at baseline (110 mg/dL[6.1 mmol/L]≦FPG<126mg/dL [7.0 mmol/L]) and those with normal FPG at baseline (FPG<110 mg/dL).
The baseline characteristic of the 2 groups were compared using Student's t test for continuous variables and the X^2 test for categorical variables. Incidence of diabetes in the 2 groups was compared with the X^2 test. Time to occurrence of diabetes during the follow-up was analyzed with Kaplan-Meier curves and compared with the log-rank test. To analyze the effect of the treatment (enalapril) on development of diabetes, a Cox regression analysis was used to take into account the effect of potential confounding baseline variables (age, sex, current smoking, history of hypertension, and weight) and time-dependent variables (systolic blood pressure; diastolic blood pressure; and use of β-blockers, diuretics, calcium-channel blockers, antiplatelet agents, or antiarrhythmics). Cox proportional-hazard models were performed for each variable, with treatment (enalapril) forced in all models. Variables with a P≦0.2 were included in a multivariate Cox proportional hazard model. […] Subgroup analyses were conducted with the X^2 test. In the particular subgroup of patients with impaired FPG at baseline, Kaplan-Meier curves were performed. Preliminary assumptions were verified before all analyses. P<0.05 was considered significant. All analyses were performed using SAS version 8.2 (SAS Institute, Inc).

[6] = test system: hypertensive rats; settings: cited from earlier work
[7] = test system: obese, hypertensive, and dyslipidemic patients; settings: given for 12 weeks; cited from earlier work
[8] = test system: high-risk patients with no evidence of left ventricular dysfunction; settings: cited from earlier work

CC(C)NCC(O)COc1ccc(CC(N)=O)cc1 (stereo not drawn) [atenolol]
patients who developed diabetes [1]: 8%

CCOc1nc2cccc(C(=O)O)c2n1Cc1ccc(-c2ccccc2-c2nnn[nH]2)cc1 [candesartan]
relative reduction in the incidence of diabetes [2]: 20%

C[C@H](CS)C(=O)N1CCC[C@H]1C(=O)O [captopril]
relative risk of developing diabetes (RR) [3]: 0.86

COc1ccccc1OCCNCC(O)COc1cccc2[nH]c3ccccc3c12 (stereo not drawn) [carvedilol]
effect on insulin sensitivity [4]: favorable effect on insulin sensitivity

CCOC(=O)[C@H](CCc1ccccc1)N[C@@H](C)C(=O)N1CCC[C@H]1C(=O)O [enalapril]
probability of remaining free from diabetes during follow-up ([5]; Kaplan-Meier, enalapril vs placebo, P<0.0001, FIG. 1): significantly higher | New cases of diabetes, % ([5]; Prevention arm of the trial (n = 198)): 6.0% | Absolute Risk Reduction ([5]; Prevention arm of the trial (n = 198), enalapril vs placebo): 13.4% | New cases of diabetes, % ([5]; Treatment arm of the trial (n = 93)): 5.7% | Absolute Risk Reduction ([5]; Treatment arm of the trial (n = 93), enalapril vs placebo): 24.3% | relative risk [RR] of new-onset diabetes ([5]; enalapril vs placebo, total population): 0.26 | New cases of diabetes, % ([5]; impaired FPG at baseline, IFG (n = 55)): 3.3% | Absolute Risk Reduction ([5]; impaired FPG at baseline, IFG (n = 55), enalapril vs placebo): 45% | Absolute Risk Reduction ([5]; impaired FPG at baseline, IFG (n = 55), enalapril vs placebo, listed as Enalapril): 44.7% | Hazard Ratio for development of diabetes ([5]; multivariate analysis, Cox regression model, 95% confidence intervals 0.10 to 0.46): 0.22 | New cases of diabetes, % ([5]; normal FPG at baseline, NFG (n = 236)): 6.6% | Absolute Risk Reduction ([5]; normal FPG at baseline, NFG (n = 236), enalapril vs placebo): 10.7% | risk of developing diabetes (in words) ([5]; patients with left ventricular systolic dysfunction): markedly reduced the risk of developing diabetes; also recorded: markedly reduces the risk of developing diabetes mellitus | New cases of diabetes, % ([5]; total population (n = 291), enalapril 5 to 20 mg/day, mean follow-up 2.9 years): 5.9% | Absolute Risk Reduction ([5]; total population (n = 291), enalapril vs placebo): 16.5% | number of patients to treat to prevent one new case of diabetes ([5]; treated for 2.9 years): 6 patients | insulin sensitivity [6]: improved insulin sensitivity | insulin sensitivity [7]: improved insulin sensitivity

CCCCc1nc(Cl)c(CO)n1Cc1ccc(-c2ccccc2-c2nn[nH]n2)cc1 [losartan]
patients who developed diabetes [1]: 6% | RR of developing diabetes ([1]; losartan vs atenolol): 0.75

CCOC(=O)[C@H](CCc1ccccc1)N[C@@H](C)C(=O)N1[C@H](C(=O)O)C[C@@H]2CCC[C@@H]21 [ramipril]
RR of developing diabetes ([8]; ramipril vs placebo): 0.66 | incidence of diabetes ([8]; treatment period of 4.5 years): 3.6% | reduction of the relative risk of developing diabetes ([8]; treatment period of 4.5 years, ramipril vs placebo): 34%
